Measured values published in ChEMBL document CHEMBL3885861, “Open TG-GATES”.

Organism: Rattus norvegicus
Test: Open TG-GATES - Regimen: Single
Type: toxicity, organism-based, Sprague-Dawley
Design: regimen Single, gender Male, age 6 weeks
Conditions: in vivo, po, 0 mg/kg, route gavage, dose level Control; for APTT / Bas / Eos / Fbg / Ht / MCH / MCHC / MCV / Mono / PT / Plat / RBC / Ret / WBC: tissue Blood; for KIDNEY_L / KIDNEY_R / KIDNEY_TOTAL: tissue Kidney; for LIVER: tissue Liver; for ALP / AST / BUN / CRE / Ca / Cl / DBIL / GLC / IP / K / LDH / Na / PL / RALB / TBIL / TC / TG / TP / gamma-GTP: tissue Plasma

Compound: CC(=O)Nc1nnc(S(N)(=O)=O)s1 [ACETAZOLAMIDE]
- TERMINAL_BW (3 h): 214.4 g
- APTT (3 h): 22 s
- Bas (3 h): 0%
- Eos (3 h): 0.8%
- Fbg (3 h): 309 mg/dL
- Ht (3 h): 39.4%
- MCH (3 h): 21.3 pg
- MCHC (3 h): 32.9%
- MCV (3 h): 64.8 fL
- Mono (3 h): 2.4%
- PT (3 h): 16.5 s
- Plat (3 h): 118.6 x10_4/uL
- RBC (3 h): 608.6 x10_4/ul
- Ret (3 h): 8.8%
- WBC (3 h): 89.5 x10_2/uL
- KIDNEY_L (3 h): 0.9 g
- KIDNEY_R (3 h): 0.9 g
- KIDNEY_TOTAL (3 h): 1.9 g
- LIVER (3 h): 9.8 g
- ALP (3 h): 1586.4 IU/L
- AST (3 h): 80.2 IU/L
- BUN (3 h): 12 mg/dL
- CRE (3 h): 0.2 mg/dL
- Ca (3 h): 11.1 mg/dL
- Cl (3 h): 106.4 meq/L
- DBIL (3 h): 0 mg/dL
- GLC (3 h): 187.4 mg/dL
- IP (3 h): 8.2 mg/dL
- K (3 h): 4 meq/L
- LDH (3 h): 235.8 IU/L
- Na (3 h): 143 meq/L
- PL (3 h): 137.6 mg/dL
- RALB (3 h): 3.1 g/dL
- TBIL (3 h): 0.018 mg/dL
- TC (3 h): 78 mg/dL
- TG (3 h): 59.8 mg/dL
- TP (3 h): 5.4 g/dL
- gamma-GTP (3 h): 1 IU/L
- TERMINAL_BW (6 h): 207.4 g
- APTT (6 h): 22.1 s
- Bas (6 h): 0%
- Eos (6 h): 0.8%
- Fbg (6 h): 320.2 mg/dL
- Ht (6 h): 39.1%
- MCH (6 h): 20.8 pg
- MCV (6 h): 62.8 fL
- Mono (6 h): 2%
- PT (6 h): 16.5 s
- Plat (6 h): 131.7 x10_4/uL
- RBC (6 h): 622.4 x10_4/ul
- Ret (6 h): 8.3%
- WBC (6 h): 79.7 x10_2/uL
- KIDNEY_L (6 h): 1 g
- KIDNEY_R (6 h): 0.9 g
- KIDNEY_TOTAL (6 h): 1.9 g
- LIVER (6 h): 9 g
- ALP (6 h): 1340.2 IU/L
- AST (6 h): 63.4 IU/L
- CRE (6 h): 0.1 mg/dL
- Ca (6 h): 11 mg/dL
- Cl (6 h): 105 meq/L
- DBIL (6 h): 0 mg/dL
- GLC (6 h): 186.6 mg/dL
- IP (6 h): 9.4 mg/dL
- K (6 h): 4.3 meq/L
- LDH (6 h): 183.6 IU/L
- Na (6 h): 141 meq/L
- PL (6 h): 127.8 mg/dL
- RALB (6 h): 3 g/dL
- TBIL (6 h): 0.024 mg/dL
- TC (6 h): 78 mg/dL
- TG (6 h): 48.2 mg/dL
- TP (6 h): 5.3 g/dL
- gamma-GTP (6 h): 1.2 IU/L
- TERMINAL_BW (9 h): 212.2 g
- APTT (9 h): 21.9 s
- Bas (9 h): 0%
- Eos (9 h): 0.6%
- Fbg (9 h): 293 mg/dL
- Ht (9 h): 39.7%
- MCH (9 h): 20.8 pg
- MCHC (9 h): 32.3%
- MCV (9 h): 64.3 fL
- Mono (9 h): 2.2%
- PT (9 h): 16.8 s
- Plat (9 h): 115.3 x10_4/uL
- RBC (9 h): 616.6 x10_4/ul
- Ret (9 h): 8.4%
- WBC (9 h): 84.8 x10_2/uL
- KIDNEY_L (9 h): 1 g
- KIDNEY_R (9 h): 1 g
- KIDNEY_TOTAL (9 h): 1.9 g
- LIVER (9 h): 8.8 g
- ALP (9 h): 1423.8 IU/L
- AST (9 h): 70.8 IU/L
- BUN (9 h): 11 mg/dL
- CRE (9 h): 0.1 mg/dL
- Ca (9 h): 10.9 mg/dL
- Cl (9 h): 104.8 meq/L
- DBIL (9 h): 0 mg/dL
- GLC (9 h): 193 mg/dL
- IP (9 h): 9.3 mg/dL
- K (9 h): 4.1 meq/L
- LDH (9 h): 163.2 IU/L
- Na (9 h): 141.6 meq/L
- PL (9 h): 113.2 mg/dL
- RALB (9 h): 3.1 g/dL
- TBIL (9 h): 0.024 mg/dL
- TC (9 h): 70.2 mg/dL
- TG (9 h): 49.8 mg/dL
- TP (9 h): 5.4 g/dL
- gamma-GTP (9 h): 1.2 IU/L
- TERMINAL_BW (24 h): 228.8 g
- APTT (24 h): 20.3 s
- Bas (24 h): 0%
- Eos (24 h): 0.6%
- Fbg (24 h): 288.8 mg/dL
- Ht (24 h): 38.7%
- MCH (24 h): 20.8 pg
- MCHC (24 h): 33.2%
- MCV (24 h): 62.9 fL
- Mono (24 h): 1.6%
- PT (24 h): 16.1 s
- Plat (24 h): 110.7 x10_4/uL
- RBC (24 h): 616.2 x10_4/ul
- Ret (24 h): 7.9%
- WBC (24 h): 66.7 x10_2/uL
- KIDNEY_L (24 h): 1 g
- KIDNEY_R (24 h): 1 g
- KIDNEY_TOTAL (24 h): 2 g
- LIVER (24 h): 10.7 g
- ALP (24 h): 1945.2 IU/L
- AST (24 h): 80.8 IU/L
- BUN (24 h): 15.8 mg/dL
- CRE (24 h): 0.1 mg/dL
- Ca (24 h): 10.7 mg/dL
- Cl (24 h): 105.8 meq/L
- DBIL (24 h): 0 mg/dL
- GLC (24 h): 201.2 mg/dL
- IP (24 h): 7.7 mg/dL
- K (24 h): 4.1 meq/L
- LDH (24 h): 185.8 IU/L
- Na (24 h): 141.6 meq/L
- PL (24 h): 137.4 mg/dL
- RALB (24 h): 3 g/dL
- TBIL (24 h): 0.004 mg/dL
- TC (24 h): 71.8 mg/dL
- TG (24 h): 97 mg/dL
- TP (24 h): 5.4 g/dL
